Results as given in patent US5821038A, “Yeast with modified permeability” (priority 1994, dated 1998).
pEC50, pIC50: −log10 of the molar value. Read-outs that look alike come from different tables or passages of the source. Numbered stars: 1 amine (or outer) side, 2 acyl side, 3 side chain; on linkers, the order of the positions; unused ones are H or OH. Bridge positions count the residues as written; N and C are the ends. Square brackets hold non-standard residues; d marks the D form. Peptide text beside a SMILES is read from it. I, II: the chains in the order shown. Actinocin(9to1) = Cc1c2oc3c(C)ccc(C(=O)[*:1])c3nc-2c(C(=O)[*:2])c(N)c1=O; NMeV = CN[C@H](C(=O)O)C(C)C; Sar = CNCC(=O)O

Columns and labels:
Assay type in all cases: cell-based, Saccharomyces cerevisiae
[1] = tested on: 5247 (wt); test: Growth inhibition (sensitivity to cytotoxic products) as measure of permeability, wild-type strain (Examples 2 and 4); details: for pEC50: Saccharomyces cerevisiae; for RATIO: EC50 relative to wild type 5247, 2880 min
Method: (§1) The strain of yeast used is the strain S. cerevisiae 5247 (Marcireau, 1992) of the ura3, trp1, MAT α genotype. This strain is transformed according to the method described by Gietz (Gietz, 1992).
(§2) The permeability of the yeasts obtained in Example 1 is determined by measuring the sensitivity to different cytotoxic products. The different yeasts are inoculated at an optical density of 0.05 to 700 nm in YNB minimum medium correctly supplemented with bases and amino acids in the presence of an increasing concentration of xenobiotics. The cultures are placed at 28° C. and at 200 rpm for 48 hours. The optical density at 700 nm is then measured. The EC50 is then determined as the xenobiotic concentration inhibiting the growth of the yeast by half compared with a control without xenobiotic.
(§3) This evaluation was carried out according to the procedure described in Example 2.

[2] = tested on: yCM63 (Δerg4); test: Growth inhibition (sensitivity to cytotoxic products) as measure of permeability, strain yCM63; details: for RATIO: EC50 5247 (wt) / EC50 yCM63, 2880 min; for pEC50: Saccharomyces cerevisiae, YNB minimum medium, 28° C., 48 hours, OD 700 nm
Method: (§4) The strain 5247 is transformed as described in 3) with the fragments prepared as described in 2a), 2b), 2c). After elimination of the selectable marker, the strains yCM30 (Δpdr1, ura3, trp1, MAT α), yCM63 (Δerg4, ura3, trp1, MAT α) and yCM65 (Δpdr1, Δerg4, ura3, trp1, MAT α) are obtained.
as §2

[3] = tested on: yCM30 (Δpdr1); test: Growth inhibition (sensitivity to cytotoxic products) as measure of permeability, strain yCM30; details: for pEC50: Saccharomyces cerevisiae; for RATIO: EC50 5247 (wt) / EC50 yCM30, 2880 min
Method: as §4, §2, §3

[4] = tested on: yCM65 (Δpdr1, Δerg4); test: Growth inhibition (sensitivity to cytotoxic products) as measure of permeability, strain yCM65; details: for pEC50: Saccharomyces cerevisiae; for RATIO: EC50 5247 (wt) / EC50 yCM65, 2880 min
Method: as §4, §2

[5] = tested on: yCM55 (Δerg6); test: Growth inhibition (sensitivity to cytotoxic products) as measure of permeability, strain yCM55; details: for pEC50: Saccharomyces cerevisiae; for RATIO: EC50 5247 (wt) / EC50 yCM55, 2880 min
Method: as §2
The strain 5247 is transformed by the fragment prepared as described in 1a. After elimination of the selectable marker, the strain yCM55 (Δerg6,ura3, trp1, MAT α) is obtained.
as §3

[6] = tested on: yCM57 (Δpdr1, Δerg6); test: Growth inhibition (sensitivity to cytotoxic products) as measure of permeability, strain yCM57; details: for RATIO: EC50 5247 (wt) / EC50 yCM57, 2880 min
Method: as §2
The strain yCM30 is transformed by the fragment prepared as described in la. After elimination of the selectable marker, the strain yCM57 (Δpdr1, Δerg6, ura3, trp1, MAT α) is obtained.
as §3

[7] = tested on: 5247 (wt); test: Growth inhibition (sensitivity to cytotoxic products) as measure of permeability, wild-type strain (Example 6)
Method: as §1
(§5) The permeability of the yeast strains 5247 and yCM61 is determined by measurement of the sensitivity to different cytotoxic products. The different yeasts are inoculated at an optical density of 0.05 to 700 nm in YNB minimum medium correctly supplemented with bases and amino acids in the presence of an increasing concentration of xenobiotics. The cultures are placed at 28° C. and at 200 rpm for 48 hours. The optical density at 700 nm is then measured. The EC50 is determined as the xenobiotic concentration inhibiting the growth of the yeast by half compared with a control without xenobiotic.

[8] = tested on: yCM61 (Δpdr1, Δpdr5, Δsnq2, Δerg6); test: Growth inhibition (sensitivity to cytotoxic products) as measure of permeability, strain yCM61 (Example 6)
From the text: The strain yCM30 is transformed by the fragment prepared as described in Example 5 in 1a. After elimination of the selectable marker, the strain yCM45 (Δpdr1, Δpdr5, ura3, trp1, MAT α) is obtained. The strain yCM45 is transformed by the fragment prepared as described in Example 5 in 1b. After elimination of the selectable marker, the strain yCM51 (Δpdr1, Δpdr5, Δsnq2, ura3, trp1, MAT α) is obtained. The strain yCM51 is transformed by the fragment prepared as described in Example 1 in 1a. After elimination of the selectable marker, the strain yCM61 (Δpdr1, Δpdr5, Δsnq2, Δerg6, ura3, trp1, MAT α) is obtained.
as §5

[9] = strain 5247 (wt), YNB minimum medium, 28° C., 48 hours, OD 700 nm, read-out: EC50
[10] = strain yCM30 (Δpdr1), YNB minimum medium, 28° C., 48 hours, OD 700 nm, read-out: EC50
[11] = strain yCM65 (Δpdr1, Δerg4), YNB minimum medium, 28° C., 48 hours, OD 700 nm, read-out: EC50
[12] = strain yCM55 (Δerg6), YNB minimum medium, 28° C., 48 hours, OD 700 nm, read-out: EC50
[13] = EC50 5247 (wt) / EC50 yCM61, 2880 min
[14] = Saccharomyces cerevisiae, Example 6, strain 5247 (wt), YNB minimum medium, 28° C., 48 hours, OD 700 nm, read-out: EC50
[15] = Saccharomyces cerevisiae, Example 6, strain yCM61 (Δpdr1, Δpdr5, Δsnq2, Δerg6), YNB minimum medium, 28° C., 48 hours, OD 700 nm, read-out: EC50

Cc1c2oc3c(C)ccc(C(=O)N[C@@H]4C(=O)N[C@H](C(C)C)C(=O)N5CCC[C@H]5C(=O)N(C)CC(=O)N(C)[C@@H](C(C)C)C(=O)O[C@@H]4C)c3nc-2c(C(=O)N[C@@H]2C(=O)N[C@H](C(C)C)C(=O)N3CCC[C@H]3C(=O)N(C)CC(=O)N(C)[C@@H](C(C)C)C(=O)O[C@@H]2C)c(N)c1=O [ACTINOMYCIN D, actinomycin D] (I: T[dV]P[Sar][NMeV] / II: T[dV]P[Sar][NMeV]; ester I:1-I:C, II:1-II:C; linker I:N-II:N via Actinocin(9to1))
pEC50 [1, 9]: 4.62
RATIO ([1]; strain 5247 (wt)): 1
RATIO [2]: 3.7
pEC50 [2]: 5.19
pEC50 [3, 10]: 4.90
RATIO ([3]; strain yCM30 (Δpdr1)): 1.9
pEC50 [4, 11]: 5.24
RATIO ([4]; strain yCM65 (Δpdr1, Δerg4)): 4.1
pEC50 [5, 12]: 5.25
RATIO ([5]; strain yCM55 (Δerg6)): 4.3
pIC50 ([6]; Saccharomyces cerevisiae, strain yCM57 (Δpdr1, Δerg6), YNB minimum medium, 28° C., 48 hours, OD 700 nm, read-out: EC50 (the source's name)): 6.12
RATIO ([6]; strain yCM57 (Δpdr1, Δerg6)): 31.9

CC[C@@]1(O)C(=O)OCc2c1cc1n(c2=O)Cc2cc3ccccc3nc2-1 [Camptothecin]
pEC50 ([7]; Saccharomyces cerevisiae, 48 h): < 3.24
RATIO [8, 13]: > 100
pEC50 ([8]; Saccharomyces cerevisiae, 48 h): 5.24

C[C@@H]1C[C@@H]([C@H](O)CC2CC(=O)NC(=O)C2)C(=O)[C@@H](C)C1 [Cycloheximide]
pEC50 ([1]; 48 h): 4.28
RATIO ([1]; strain 5247 (wt)): 1
pEC50 ([3]; 48 h): 5.60
RATIO ([3]; strain yCM30 (Δpdr1)): 21.2
pEC50 ([4]; 48 h): 6.30
RATIO ([4]; strain yCM65 (Δpdr1, Δerg4)): 106
pEC50 ([5]; 48 h): 5.64
RATIO ([5]; strain yCM55 (Δerg6)): 23
pIC50 ([6]; Saccharomyces cerevisiae, 48 h, read-out: EC50): 6.70
RATIO ([6]; strain yCM57 (Δpdr1, Δerg6)): 265
pEC50 ([7]; Saccharomyces cerevisiae, 48 h): 4.15
RATIO [8, 13]: 500
pEC50 ([8]; Saccharomyces cerevisiae, 48 h): 6.85

COc1cccc2c1C(=O)c1c(O)c3c(c(O)c1C2=O)C[C@@](O)(C(=O)CO)C[C@@H]3O[C@H]1C[C@H](N)[C@H](O)[C@H](C)O1 [DOXORUBICIN, doxorubicin]
pEC50 [1, 9]: 4.39
RATIO ([1]; strain 5247 (wt)): 1
RATIO [2]: 4.4
pEC50 [2]: 5.04
pEC50 [3, 10]: 4.74
RATIO ([3]; strain yCM30 (Δpdr1)): 2.2
pEC50 [4, 11]: 5.29
RATIO ([4]; strain yCM65 (Δpdr1, Δerg4)): 7.8
pEC50 [5, 12]: 4.92
RATIO ([5]; strain yCM55 (Δerg6)): 3.4
pEC50 ([6]; Saccharomyces cerevisiae, strain yCM57 (Δpdr1, Δerg6), YNB minimum medium, 28° C., 48 hours, OD 700 nm): 5.77
RATIO ([6]; strain yCM57 (Δpdr1, Δerg6)): 23.8

CC[C@H](C)C(=O)O[C@H]1C[C@@H](C)C=C2C=C[C@H](C)[C@H](CC[C@@H]3C[C@@H](O)CC(=O)O3)[C@H]21 [Lovastatin]
pEC50 [7, 14]: 3.84
pEC50 [8, 15]: 5.42
RATIO ([8]; s. cerevisiae ycm61, 2880 min): 37

CO[C@@H]1[C@@H](OC(N)=O)[C@@H](O)[C@H](Oc2ccc3c(O)c(NC(=O)c4ccc(O)c(CC=C(C)C)c4)c(=O)oc3c2C)OC1(C)C [Novobiocin]
pEC50 [7, 14]: 3.61
RATIO [8, 13]: 27
pEC50 [8, 15]: 5.05

Cc1cc(C)nc(NC(=O)NS(=O)(=O)c2ccccc2C(=O)O)n1 [Sulphomethuron]
pEC50 ([7]; Example 6, strain 5247 (wt), YNB minimum medium, 28° C., 48 hours, OD 700 nm, read-out: EC50): 5.16
RATIO [8, 13]: > 50
pEC50 ([8]; Example 6, strain yCM61 (Δpdr1, Δpdr5, Δsnq2, Δerg6), YNB minimum medium, 28° C., 48 hours, OD 700 nm, read-out: EC50): > 6.89
